In brackets after ≈: the same amount, converted by molar mass. Several values for one entry are separate records, joined by “and”; a condition that tells them apart may be missing. Equal entries are not always repeated.
Columns and labels:
Assay in all cases: ≥ marks a high value that may be exact or a test limit, other limits are often not marked, values filed in µg/mL are converted to µM
[1] = test system: Acinetobacter baumannii 1
[2] = test system: Acinetobacter baumannii ATCC 19606
[3] = test system: Bacillus subtilis ATCC 6633
[4] = test system: Candida albicans 08022710
[5] = test system: Candida albicans 08A802
[6] = test system: Candida albicans ATCC 10231
[7] = test system: Candida albicans ATCC 2002
[8] = test system: Enterococcus faecalis
[9] = test system: Escherichia coli ATCC 25922
[10] = test system: Escherichia coli ATCC 35218
[11] = test system: Escherichia coli
[12] = test system: Mycobacterium tuberculosis CAS3
[13] = test system: Mycobacterium tuberculosis FYX
[14] = test system: Mycobacterium tuberculosis H37Rv
[15] = test system: Mycobacterium tuberculosis WXY
[16] = test system: Pseudomonas aeruginosa ATCC 27853
[17] = test system: Pseudomonas aeruginosa
[18] = test system: Staphylococcus aureus 08A875
[19] = test system: Staphylococcus aureus ATCC 25923
[20] = test system: Staphylococcus aureus ATCC 6538
[21] = test system: Staphylococcus epidermidis
[22] = test system: Porphyromonas gingivalis W50
[23] = test system: Pseudomonas aeruginosa PAO1
[24] = test system: Staphylococcus aureus ATCC 49525
[25] = test system: Escherichia coli K88
[26] = test system: Escherichia coli O157:H7 CICC 21530
[27] = test system: Lacticaseibacillus rhamnosus 1.0911
[28] = test system: Lacticaseibacillus rhamnosus 1.0936
[29] = test system: Lacticaseibacillus rhamnosus 1.9021
[30] = test system: Lacticaseibacillus rhamnosus 8014
[31] = test system: Salmonella enterica subsp. enterica serovar Choleraesuis CVCC 503
[32] = test system: Salmonella enterica subsp. enterica serovar Pullorum C79-13
[33] = test system: Salmonella enterica subsp. enterica serovar Typhimurium ATCC 14028
[34] = test system: Staphylococcus aureus ATCC 29213
[35] = test system: Staphylococcus aureus ATCC 43300
[36] = test system: Staphylococcus epidermidis ATCC 12228
[37] = test system: Streptococcus agalactiae BNCC 185941
[38] = test system: Escherichia coli J2210
[39] = test system: Escherichia coli JJ2487
[40] = test system: Escherichia coli JW0013
[41] = test system: Escherichia coli MC1061
[42] = test system: Escherichia coli O157:H7
[43] = test system: Escherichia coli UB1005
[44] = test system: Salmonella enterica subsp. enterica serovar Enteritidis MH91989
[45] = test system: Salmonella typhimurium SL1344

CC(C)C[C@H](NC(=O)[C@H](CC(C)C)NC(=O)[C@H](CCCCN)NC(=O)[C@H](CCCCN)NC(=O)[C@@H](NC(=O)[C@H](C)N)C(C)C)C(=O)N[C@@H](CCCN=C(N)N)C(=O)N[C@@H](Cc1c[nH]c2ccccc12)C(=O)N[C@@H](Cc1c[nH]c2ccccc12)C(=O)N[C@@H](CO)C(=O)N[C@@H](CCCN=C(N)N)C(=O)N[C@@H](Cc1c[nH]c2ccccc12)C(=O)N[C@@H](Cc1c[nH]c2ccccc12)C(=O)N[C@@H](CCCCN)C(=O)N[C@@H](CCCCN)C(=O)O [AVKKLLRWWSRWWKK]
MIC [1]: ≥ 96.5 µM
MIC [2]: 72.4 µM (≈ 150 µg/mL)
MIC [3]: ≥ 72.4 µM
MIC [4]: ≥ 96.5 µM
MIC [5]: ≥ 72.4 µM
MIC [6]: > 96.5 µM
MIC [7]: ≥ 96.5 µM
MIC [8]: ≥ 72.4 µM
MIC [9]: > 96.5 µM
MIC [10]: ≥ 96.5 µM
MIC [11]: > 96.5 µM and 72.4 µM
MIC [12]: 9.05 µM (≈ 18.8 µg/mL)
MIC [13]: 9.05 µM (≈ 18.8 µg/mL)
MIC [14]: 9.05 µM (≈ 18.8 µg/mL)
MIC [15]: 4.53 µM (≈ 9.38 µg/mL)
MIC [16]: > 96.5 µM
MIC [17]: > 96.5 µM
MIC [18]: ≥ 72.4 µM
MIC [19]: > 96.5 µM
MIC [20]: > 96.5 µM
MIC [21]: ≥ 96.5 µM

CC[C@H](C)[C@H](NC(=O)[C@H](CCCCN)NC(=O)CN)C(=O)N[C@H](C(=O)N[C@@H](CCCCN)C(=O)N[C@@H](CC(C)C)C(=O)N[C@@H](CCCCN)C(=O)N[C@@H](C)C(=O)N[C@@H](CO)C(=O)N[C@@H](CC(C)C)C(=O)N[C@@H](CCCCN)C(=O)N[C@@H](CC(C)C)C(=O)N[C@@H](CC(C)C)C(N)=O)[C@@H](C)CC [GKIIKLKASLKLL]
MIC [22]: ≥ 70.2 µM
MIC [23]: 5.61 µM and 7.3 µM
MIC [24]: ≥ 58.5 µM

CC(C)C[C@H](NC(=O)CNC(=O)[C@H](CCCCN)NC(=O)[C@H](Cc1c[nH]c2ccccc12)NC(=O)[C@H](CCCCN)NC(=O)CNC(=O)[C@H](CC(C)C)NC(=O)[C@H](CC(C)C)NC(=O)[C@@H](N)CCCCN)C(=O)N[C@@H](CC(C)C)C(=O)N[C@@H](CCCCN)C(N)=O [KLLGKWKGLLK]
MIC [25]: 4 µM (≈ 5.13 µg/mL)
MIC [26]: ≥ 128 µM
MIC [27]: ≥ 128 µM
MIC [28]: ≥ 128 µM
MIC [29]: ≥ 128 µM
MIC [30]: ≥ 128 µM
MIC [16]: 32 µM (≈ 41 µg/mL)
MIC [23]: 16 µM (≈ 20.5 µg/mL)
MIC [31]: ≥ 128 µM
MIC [32]: 8 µM (≈ 10.3 µg/mL)
MIC [33]: 128 µM (≈ 164 µg/mL)
MIC [34]: > 128 µM
MIC [35]: > 128 µM
MIC [36]: > 128 µM
MIC [37]: ≥ 128 µM

CC[C@H](C)[C@H](NC(=O)[C@H](CCCN=C(N)N)NC(=O)[C@H](CCCN=C(N)N)NC(=O)[C@@H]1CCCN1C(=O)[C@@H]1CCCN1C(=O)[C@H](CCCN=C(N)N)NC(=O)[C@@H]1CCCN1C(=O)[C@H](CCCN=C(N)N)NC(=O)[C@@H]1CCCN1C(=O)[C@H](CC(C)C)NC(=O)[C@H](Cc1ccc(O)cc1)NC(=O)[C@@H]1CCCN1C(=O)[C@H](CCCCN)NC(=O)[C@H](CCCCN)NC(=O)[C@H](CC(=O)O)NC(=O)[C@@H](N)C(C)C)C(=O)N[C@@H](Cc1ccc(O)cc1)C(=O)N[C@@H](CC(N)=O)C(=O)N[C@@H](CCCN=C(N)N)C(N)=O [VDKKPYLPRPRPPRRIYNR]
MIC [38]: 0.161 µM (≈ 0.39 µg/mL)
MIC [39]: 0.248 µM (≈ 0.6 µg/mL)
MIC [40]: 0.248 µM (≈ 0.6 µg/mL)
MIC [41]: 0.124 µM (≈ 0.3 µg/mL)
MIC [42]: 0.991 µM (≈ 2.4 µg/mL)
MIC [43]: 1.03 µM (≈ 2.5 µg/mL)
MIC [23]: 13.2 µM (≈ 32 µg/mL)
MIC [44]: 0.248 µM (≈ 0.6 µg/mL)
MIC [45]: 0.248 µM (≈ 0.6 µg/mL)
MIC [19]: 9.34 µM (≈ 22.6 µg/mL)

— DBAASP
